Consider 25 molecules from US8283361B2 (AstraZeneca AB, priority 2008, dated 2012).

The experiment has as its target S. aureus GyrB ATPase (Staphylococcus aureus, UniProt P0A0K8). As to the kind of experiment: biochemical. As to conditions: compound at 1 μM, one value per test if tested more than once; for inhibition at 1 µM: read-out: % Inhibition of S. aureus GyrB ATPase; for % Inhibition of S. aureus GyrB ATPase: 1 µM. In a few lines:
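IC50 values derive from 10-point titrations of compound (in DMSO). Phosphate formed from 250 μM ATP was quantified by acidic molybdate/malachite green after quenching.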

Several values for one entry are separate records, joined by “and”; a condition that tells them apart may be missing. Equal values may be shown once. Where a name gives a salt, the structure may show the parent alone.

S. aureus GyrB ATPase, sequence (P0A0K8 whole entry): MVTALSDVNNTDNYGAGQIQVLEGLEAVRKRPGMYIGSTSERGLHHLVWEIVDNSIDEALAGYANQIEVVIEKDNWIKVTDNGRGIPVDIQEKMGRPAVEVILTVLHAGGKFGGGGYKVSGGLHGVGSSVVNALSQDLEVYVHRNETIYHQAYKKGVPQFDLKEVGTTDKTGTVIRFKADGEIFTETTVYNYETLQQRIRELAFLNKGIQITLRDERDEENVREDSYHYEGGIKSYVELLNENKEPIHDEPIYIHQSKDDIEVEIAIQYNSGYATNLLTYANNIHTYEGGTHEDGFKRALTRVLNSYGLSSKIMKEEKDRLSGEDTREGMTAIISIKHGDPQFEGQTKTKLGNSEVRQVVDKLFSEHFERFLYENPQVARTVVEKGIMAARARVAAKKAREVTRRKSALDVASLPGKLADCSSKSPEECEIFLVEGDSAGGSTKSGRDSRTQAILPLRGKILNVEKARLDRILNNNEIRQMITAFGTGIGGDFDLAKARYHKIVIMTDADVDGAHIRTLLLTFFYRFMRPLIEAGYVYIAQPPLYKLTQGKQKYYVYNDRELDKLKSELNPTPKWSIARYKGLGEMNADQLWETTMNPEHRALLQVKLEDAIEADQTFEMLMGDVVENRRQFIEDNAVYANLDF
S. aureus GyrB ATPase, sequence (P0AES4 whole entry, further chain): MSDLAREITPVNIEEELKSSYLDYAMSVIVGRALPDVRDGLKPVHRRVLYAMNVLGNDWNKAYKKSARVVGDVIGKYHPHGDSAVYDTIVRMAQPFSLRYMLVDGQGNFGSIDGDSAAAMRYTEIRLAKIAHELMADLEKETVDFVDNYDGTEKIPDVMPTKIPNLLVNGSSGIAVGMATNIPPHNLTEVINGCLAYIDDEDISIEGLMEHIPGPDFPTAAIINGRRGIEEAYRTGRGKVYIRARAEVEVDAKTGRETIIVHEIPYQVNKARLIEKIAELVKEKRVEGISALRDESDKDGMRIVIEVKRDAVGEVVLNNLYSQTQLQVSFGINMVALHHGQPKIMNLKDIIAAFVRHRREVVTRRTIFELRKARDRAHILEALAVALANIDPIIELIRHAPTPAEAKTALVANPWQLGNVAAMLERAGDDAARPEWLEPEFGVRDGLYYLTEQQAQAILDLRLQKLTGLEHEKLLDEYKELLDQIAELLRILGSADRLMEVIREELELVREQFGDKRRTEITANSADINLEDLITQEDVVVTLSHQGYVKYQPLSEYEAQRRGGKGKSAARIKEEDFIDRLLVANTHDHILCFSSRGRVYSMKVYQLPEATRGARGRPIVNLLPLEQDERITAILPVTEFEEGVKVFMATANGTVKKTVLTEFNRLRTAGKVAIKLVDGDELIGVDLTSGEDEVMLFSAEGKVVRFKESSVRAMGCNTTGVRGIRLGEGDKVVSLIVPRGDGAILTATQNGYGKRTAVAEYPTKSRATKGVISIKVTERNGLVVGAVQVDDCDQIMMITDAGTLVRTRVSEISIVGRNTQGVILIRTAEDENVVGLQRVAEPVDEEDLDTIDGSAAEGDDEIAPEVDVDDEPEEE

A word on the inhibition: it is the drop in the measured response relative to a control, in per cent. For the molecule `CCNC(=O)Nc1cc(-c2nc(C(F)(F)F)cs2)c(-c2ccc3c(c2)c(=O)c(C(=O)O)cn3[C@@H]2CCCN(CC(C)(C)CN3CCOCC3)C2)cn1` [Example 290, (R)-1-(1-(2,2-dimethyl-3-morpholinopropyl)piperidin-3-yl)-6-(6-(3-ethylureido)-4-(4-(trifluoromethyl)thiazol-2-yl)pyridin-3-yl)-4-oxo-1,4-dihydroquinoline-3-carboxylic acid], the inhibition at 1 µM was found to be 100%.
The same measure, in the same setting: to `CCNC(=O)Nc1cc(-c2nc(C(F)(F)F)cs2)c(-c2ccc3c(c2)c(=O)c(C(=O)O)cn3[C@H]2CCCN(CCO)C2)cn1` [Example 291, (S)-6-(6-(3-ethylureido)-4-(4-(trifluoromethyl)thiazol-2-yl)pyridin-3-yl)-1-(1-(2-hydroxyethyl)piperidin-3-yl)-4-oxo-1,4-dihydroquinoline-3-carboxylic acid] belongs 107%; to `CCNC(=O)Nc1cc(-c2nc(C(F)(F)F)cs2)c(-c2ccc3c(c2)c(=O)c(C(=O)O)cn3[C@@H]2CCCN(CCO)C2)cn1` [Example 292, (R)-6-(6-(3-ethylureido)-4-(4-(trifluoromethyl)thiazol-2-yl)pyridin-3-yl)-1-(1-(2-hydroxyethyl)piperidin-3-yl)-4-oxo-1,4-dihydroquinoline-3-carboxylic acid], 102%.
On to `CCNC(=O)Nc1cc(-c2nc(C(F)(F)F)cs2)c(-c2ccc3c(c2)c(=O)c(C(=O)O)cn3CC2COCCN2)cn1` (centres unmarked) [Example 293], for which the inhibition at 1 µM stood at 106%.
As for `CCNC(=O)Nc1cc(-c2nc(C(F)(F)F)cs2)c(-c2ccc3c(c2)c(=O)c(C(=O)O)cn3CC2COCCN2)cn1` (centres unmarked) [Example 294], the “% Inhibition of S. aureus GyrB ATPase” value is reported as 109%.
Take `CCNC(=O)Nc1cc(-c2nc(C(F)(F)F)cs2)c(-c2ccc3c(c2)c(=O)c(C(=O)O)cn3CC2CCN(CC)C2)cn1` (centres unmarked) [Example 305, 1-((1-ethylpyrrolidin-3-yl)methyl)-6-(6-(3-ethylureido)-4-(4-(trifluoromethyl)thiazol-2-yl)pyridin-3-yl)-4-oxo-1,4-dihydroquinoline-3-carboxylic acid]: the inhibition at 1 µM was 103%.
Take `CCNC(=O)Nc1cc(-c2nc(C(F)(F)F)cs2)c(-c2ccc3c(c2)c(=O)c(C(=O)O)cn3CC2CCN(CCN3CCOCC3)C2)cn1` (centres unmarked) [Example 306, 6-(6-(3-ethylureido)-4-(4-(trifluoromethyl)thiazol-2-yl)pyridin-3-yl)-1-((1-(2-morpholinoethyl)pyrrolidin-3-yl)methyl)-4-oxo-1,4-dihydroquinoline-3-carboxylic acid]: the “% Inhibition of S. aureus GyrB ATPase” value was 100% and 102%; the inhibition at 1 µM is 105%.
Take `CCNC(=O)Nc1cc(-c2nc(C(F)(F)F)cs2)c(-c2ccc3c(c2)c(=O)c(C(=O)O)cn3CC2CCN(CC3CCCO3)C2)cn1` (centres unmarked) [Example 307, 6-(6-(3-ethylureido)-4-(4-(trifluoromethyl)thiazol-2-yl)pyridin-3-yl)-4-oxo-1-((1-((tetrahydrofuran-2-yl)methyl)pyrrolidin-3-yl)methyl)-1,4-dihydroquinoline-3-carboxylic acid]: the inhibition at 1 µM is 105%.
Take `CCNC(=O)Nc1cc(-c2nc(C(F)(F)F)cs2)c(-c2ccc3c(c2)c(=O)c(C(=O)O)cn3CC2CCN(CCO)C2)cn1` (centres unmarked) [Example 308, 6-(6-(3-ethylureido)-4-(4-(trifluoromethyl)thiazol-2-yl)pyridin-3-yl)-1-((1-(2-hydroxyethyl)pyrrolidin-3-yl)methyl)-4-oxo-1,4-dihydroquinoline-3-carboxylic acid hydrochloride]: the inhibition at 1 µM stood at 111%.
With `CCNC(=O)Nc1cc(-c2nc(C(F)(F)F)cs2)c(-c2ccc3c(c2)c(=O)c(C(=O)O)cn3C2CCCN(Cc3ccncc3)C2)cn1` (centres unmarked) [Example 309, 6-(6-(3-ethylureido)-4-(4-(trifluoromethyl)thiazol-2-yl)pyridin-3-yl)-4-oxo-1-(1-(pyridin-4-ylmethyl)piperidin-3-yl)-1,4-dihydroquinoline-3-carboxylic acid], the inhibition at 1 µM was 109%.
Regarding `CCNC(=O)Nc1cc(-c2nc(C(F)(F)F)cs2)c(-c2ccc3c(c2)c(=O)c(C(=O)O)cn3C2CCCN(C)C2)cn1` (centres unmarked) [Example 311, 6-(6-(3-ethylureido)-4-(4-(trifluoromethyl)thiazol-2-yl)pyridin-3-yl)-1-(1-methylpiperidin-3-yl)-4-oxo-1,4-dihydroquinoline-3-carboxylic acid], the inhibition at 1 µM was 100%.
On the same count and under the same terms, to `CCNC(=O)Nc1cc(-c2nc(C(F)(F)F)cs2)c(-c2ccc3c(c2)c(=O)c(C(=O)O)cn3[C@H]2CCN(C)C2)cn1` [Example 312, (S)-6-(6-(3-ethylureido)-4-(4-(trifluoromethyl)thiazol-2-yl)pyridin-3-yl)-1-(1-methylpyrrolidin-3-yl)-4-oxo-1,4-dihydroquinoline-3-carboxylic acid] belongs 105%; to `CCNC(=O)Nc1cc(-c2nc(C(F)(F)F)cs2)c(-c2ccc3c(c2)c(=O)c(C(=O)O)cn3CC2CCCN(C)C2)cn1` (centres unmarked) [Example 313, 6-(6-(3-ethylureido)-4-(4-(trifluoromethyl)thiazol-2-yl)pyridin-3-yl)-1-((1-methylpiperidin-3-yl)methyl)-4-oxo-1,4-dihydroquinoline-3-carboxylic acid], 103%.
On to `CCNC(=O)Nc1cc(-c2nc(C(F)(F)F)cs2)c(-c2ccc3c(c2)c(=O)c(C(=O)O)cn3[C@H]2CCCC[C@@H]2N)cn1` [Example 314, 1-((1S,2S)-2-aminocyclohexyl)-6-(6-(3-ethylureido)-4-(4-(trifluoromethyl)thiazol-2-yl)pyridin-3-yl)-4-oxo-1,4-dihydroquinoline-3-carboxylic acid], for which the inhibition at 1 µM was 114%.
Same read-out and setting: the same measure for `CCNC(=O)Nc1cc(-c2nc(C(F)(F)F)cs2)c(-c2ccc3c(c2)c(=O)c(C(=O)O)cn3CCCO)cn1` [Example 320, 6-(6-(3-Ethylureido)-4-(4-(trifluoromethyl)thiazol-2-yl)pyridin-3-yl)-1-(3-hydroxy-propyl)-4-oxo-1,4-dihydro-quinoline-3-carboxylic acid]: 98%; for `CCNC(=O)Nc1cc(-c2nc(C(F)(F)F)cs2)c(-c2ccc3c(c2)c(=O)c(C(=O)O)cn3C2CCOCC2)cn1` [Example 321, 6-(6-(3-Ethylureido)-4-(4-(trifluoromethyl)thiazol-2-yl)-pyridin-3-yl)-4-oxo-1-(tetrahydro-2H-pyran-4-yl)-1,4dihydroquinoline-3-carboxylic acid]: 100%.
Take `CCNC(=O)Nc1cc(-c2nc(C(F)(F)F)cs2)c(-c2ccc3c(c2)c(=O)c(C(=O)O)cn3C2CCCCC2)cn1` [Example 322, 1-Cyclohexyl-6-(6-(3-ethylureido)-4-(4-(trifluoro-methyl)thiazol-2-yl)pyridin-3-yl)-4-oxo-1,4-dihydroquinoline-3-carboxylic acid]: the inhibition at 1 µM came out at 96%.
Same read-out and setting: the same measure for `CCNC(=O)Nc1cc(-c2nc(C(F)(F)F)cs2)c(-c2ccc3c(c2)c(=O)c(C(=O)O)cn3C2CCN(C)CC2)cn1` [Example 323, 6-(6-(3-Ethylureido)-4-(4-(trifluoromethyl)thiazol-2-yl)pyridin-3-yl)-1-(1-methyl-piperidin-4-yl)-4-oxo-1,4-dihydro-quinoline-3-carboxylic acid]: 106%; for `CCNC(=O)Nc1cc(-c2nc(C(F)(F)F)cs2)c(-c2ccc3c(c2)c(=O)c(C(=O)NCCOC)cn3C2CC2)cn1` [Example 325, 1-Cyclopropyl-6-(6-(3-ethylureido)-4-(4-(trifluoromethyl)thiazol-2-yl)pyridin-3-yl)-N-(2-methoxyethyl)-4-oxo-1,4-dihydroquinoline-3-carboxamide]: 96%; for `CCNC(=O)Nc1cc(-c2nc(C(F)(F)F)cs2)c(-c2ccc3c(c2)c(=O)c(C(=O)NC2CC2)cn3C2CC2)cn1` [Example 326, N,1-Dicyclopropyl-6-(6-(3-ethylureido)-4-(4-(trifluoromethyl)thiazol-2-yl)pyridin-3-yl)-4-oxo-1,4-dihydroquino-line-3-carboxamide]: 97%.
Turning to `CCNC(=O)Nc1cc(-c2nc(C(F)(F)F)cs2)c(-c2ccc3c(c2)c(=O)c(C(=O)NC(COC)COC)cn3C2CC2)cn1` [Example 327, 1-Cyclopropyl-N-(1,3-dimethoxy-propan-2-yl)-6-(6-(3-ethylureido)-4-(4-(trifluoromethyl)thiazol-2-yl)pyridin-3-yl)-4-oxo-1,4-dihydroquinoline-3-carboxamide], the inhibition at 1 µM was 100%.
As for `CCNC(=O)Nc1cc(-c2nc(C(F)(F)F)cs2)c(-c2ccc3c(c2)c(=O)c(C(=O)NCC(O)CO)cn3C2CC2)cn1` (centres unmarked) [Example 328, 1-Cyclopropyl-N-(2,3-dihydroxy-propyl)-6-(6-(3-ethylureido)-4-(4-(trifluoromethyl)thiazol-2-yl)pyridin-3-yl)-4-oxo-1,4-dihydroquinoline-3-carboxamide], the inhibition at 1 µM came to 109%.
On to `CCNC(=O)Nc1cc(-c2nc(C(F)(F)F)cs2)c(-c2ccc3c(c2)c(=O)c(C(=O)NCCO)cn3Cc2noc(C3CC3)n2)cn1` [Example 329], for which the inhibition at 1 µM stood at 97%.
In the case of `CCNC(=O)Nc1cc(-c2nc(C(F)(F)F)cs2)c(-c2ccc3c(=O)c(C(=O)NCCO)cn(CC)c3c2)cn1` [Example 330, 1-Ethyl-7-{6-[(ethylcarbamoyl)amino]-4-[4-(trifluoromethyl)-1,3-thiazol-2-yl]pyridin-3-yl}-N-(2-hydroxyethyl)-4-oxo-1,4-dihydroquinoline-3-carboxamide], the inhibition at 1 µM came out at 109%.
Turning to `CCNC(=O)Nc1cc(-c2nc(C(F)(F)F)cs2)c(-c2ccc3c(=O)c(C(=O)NCCCO)cn(CC)c3c2)cn1` [Example 331, 1-Ethyl-7-{6-[(ethylcarbamoyl)amino]-4-[4-(trifluoromethyl)-1,3-thiazol-2-yl]pyridin-3-yl}-N-(3-hydroxypropyl)-4-oxo-1,4-dihydroquinoline-3-carboxamide], the inhibition at 1 µM turned out to be 109%.
